Data from patent US20230340498A1, “COMPOSITIONS AND METHODS FOR INDUCIBLE ALTERNATIVE SPLICING REGULATION OF GENE EXPRESSION” (The Children's Hospital of Philadelphia, priority 2020, published 2023).

How the values were obtained:
AAV8.Xon.Epo = assay: In vivo induction of AAV8.Xon.Epo in C57Bl6 mice; details: 24 h after the last LMI070 dose
Excerpt: To assess the applicability of Xon for liver targeted therapies, AAV8.Xon.Epo and AAV8.Xon.SaCas9 vectors were generated and delivered to C57Bl6 and Ai14 reporter mice, respectively (FIGS. 7A, 7C, 7F).

[1] = test system: Ai14 reporter genomic locus; assay: In vivo AAVPHPeB SF3B3.Xon SaCas9 editing of Ai14 reporter locus in brain; details: Ai14 mice, tdTomato expression
Excerpt: To assess the applicability of Xon for brain targeted therapies, the SF3B3.Xon was packaged into AAVPHPeB vector to control the expression of SaCas9 protein and delivered to transgenic Ai14 reporter mice and BacHD mice (FIGS. 9A, 9C).

HTT = assay: X^on-SaCas9 regulated HTT exon 1 editing in HEK293 cells; format: cell-based, Human
Protocol: Cell culture, transfection, and LMI070/RG7800 treatment. Human embryonic kidney (HEK293) cells (obtained from CHOP Research Vector Core stock) were maintained in DMEM media containing 10% Fetal Bovine Serum (FBS), 1% L-Glutamine and 1% penicillin/streptomycin at 37° C. with 5% CO2. Cells were cultured in 24 well plates and transfected at 80-90% confluence using Lipofectamine 2000 transfection reagent, according to the manufacturer’s protocol. For all experiments, 4 hours after plasmid transfection, cells were treated with LMI070 (MedChemExpress, HY-19620, suspended in DMSO) or RG7800 (MedChemExpress, HY-101792A, suspended in H2O) at the indicated concentrations. Cells were tested for mycoplasma by Research Vector Core. None of the cells used in the study were listed in ICLAC database of commonly misidentified cell lines.
(§1) RNA extraction, RT-PCR, and Splicing assays. Total RNA was extracted using Trizol (Life Technologies) according to the manufacturer’s protocol, with the exception of 1 µL Glycoblue (Life Technologies) in addition to the aqueous phase on the isopropanol precipitation step and a single wash with cold 70% ethanol. To determine HTT expression levels after transfection, RNA samples were quantified by spectrophotometry and subsequently cDNAs generated from […] of total RNA with random hexamers (TaqMan RT reagents, Applied Biosystems). To determine human HTT expression levels in HEK293 cells, we used TaqMan probes for human HTT and glyceraldehyde 3-phosphate dehydrogenase (GAPDH) mRNAs obtained from Applied Biosystems. Relative HTT gene expression was determined using the ddCt method. […] Splicing was determined by PCR using the Phusion High-Fidelity polymerase (Thermofisher) and PCR products separated on a 2.5% agarose gel pre-stained with EtBr and spliced-in and spliced-out band densitometry performed using with the ChemiDoc Imaging System (BioRad) and Image Lab analysis software. Splicing induction from mouse tissues was determined using two custom TaqMan assays designed to determine total or LMI070-spliced in mRNA transcripts. The percentage of induction was determined by dividing the average Ct novel exon and average Ct Total, relative to control animals injected with AAV virus plus vehicle.
Western Blots. HEK293 cells were rinsed and lysed with Passive Lysis Buffer (PBL, Promega), protein concentrations determined using the DC protein assay (Bio-Rad), and 10-20 µg of protein loaded on a 3%-8% NuPAGE Tris-Acetate Gel in tris-acetate buffer (Novex Life Technologies) or a 4-12% NuPAGE TrisBis NuPAGE gels in MES buffer (Novex Life Technologies) to determine HTT, SaCas9, or eGFP protein levels, respectively, with β-catenin as loading control. […]

HEK293 cells = assay: PCR validation of LMI070-induced novel exons with primers binding the flanking exons; format: cell-based, Human; details: top 5 candidate genes; cDNA from HEK293 cells treated with LMI070 vs DMSO
Protocol: as §1, with “To determine human HTT expression levels in HEK293 cells, we used TaqMan probes for human HTT and glyceraldehyde 3-phosphate dehydrogenase (GAPDH) mRNAs obtained from Applied Biosystems.” left out, “vehicle. […]” for “vehicle.”

`CC1(C)CC(Oc2ccc(-c3ccc(-c4cn[nH]c4)cc3O)nn2)CC(C)(C)N1` [LMI070, 5-(1H-Pyrazol-4-yl)-2-(6-((2,2,6,6-tetramethylpiperidin-4-yl)oxy)pyridazin-3-yl)phenol] was tested, and the “induction of Mouse Epo and hematocrit levels” value (AAV8.Xon.Epo) was “Induction of Mouse Epo and hematocrit levels were detected”, the “editing of the Ai14 reporter genomic locus (brain)” value [1] was “only observed on mice treated with LMI070” and the “SaCas9 expression from X^on switch” value (HTT; HEK293 cells, varying doses of LMI070, western blot 24 h) was “clear dose response”. For the same molecule, the “HTT exon 1 editing versus constitutively expressed SaCas9” value (HTT; X^on-SaCas9 plus gRNAs, 100 nM LMI070) was “equivalent editing”, the “reduction of HTT transcripts” value (HTT; X^on-SaCas9 plus gRNAs, upon LMI070 treatment, RT-qPCR) was 50% and the HTT protein levels (HTT; X^on-SaCas9 plus gRNAs, upon LMI070 treatment, western blot) was “similarly reduced”. For the same molecule, the “amplification of the novel exons by PCR” value (HEK293 cells) was “Robust amplification”.
